Data reported in ChEMBL document CHEMBL1121985, “3'-Hydroxy- and (+/-)-3',11-dihydroxy-delta 9-tetrahydrocannabinol: biologically active metabolites of delta 9-tetrahydrocannabinol” (1982).

Key:
Mus musculus [1] = experiment: Tested for the ability to alter the spontaneous activity in mice at 1 mg/kg; format: functional
Canis familiaris [2] = experiment: Tested for Maximal behavioral effect(overt behavior) in dogs, activity is expressed as av score at a dose of 0.05 mg/kg; format: functional, Canis lupus familiaris
Mus musculus [3] = experiment: Tested for the ability to alter the spontaneous activity in mice at 3 mg/kg; format: functional
Canis familiaris [4] = experiment: Tested for Maximal behavioral effect(overt behavior) in dogs, activity is expressed as av score at a dose of 0.1 mg/kg; format: functional, Canis lupus familiaris
Mus musculus [5] = experiment: Tested for the ability to change in rectal temperature in mice at 0.1 mg/kg; format: functional
Mus musculus [6] = experiment: Tested for the ability to alter the spontaneous activity in mice at 0.3 mg/kg; format: functional
Mus musculus [7] = experiment: Tested for the ability to change in rectal temperature in mice at 10 mg/kg; format: functional
Mus musculus [8] = experiment: Tested for the ability to change in rectal temperature in mice at 0.3 mg/kg; format: functional
Mus musculus [9] = experiment: Tested for the ability to alter the spontaneous activity in mice at 0.1 mg/kg; format: functional
Mus musculus [10] = experiment: Tested for the ability to alter the spontaneous activity in mice at 10 mg/kg; format: functional
Canis familiaris [11] = experiment: Tested for Maximal behavioral effect(overt behavior) in dogs, activity is expressed as av score at a dose of 0.2 mg/kg; format: functional, Canis lupus familiaris
Mus musculus [12] = experiment: Tested for the ability to change in rectal temperature in mice at 1 mg/kg; format: functional
Mus musculus [13] = experiment: Tested for the ability to change in rectal temperature in mice at 3 mg/kg; format: functional
Canis familiaris [14] = experiment: Cardiovascular effect for percentage change in blood pressure in anesthetized dogs after 1 mg/kg iv dose; format: functional, Canis lupus familiaris
Canis familiaris [15] = experiment: Cardiovascular effect for percentage change in heart rate in anesthetized dogs after 1 mg/kg iv dose; format: functional, Canis lupus familiaris
Mus musculus [16] = experiment: Tested for the ability to change in rectal temperature in mice at 5.0 mg/kg; format: functional
Mus musculus [17] = experiment: Tested for the ability to alter the spontaneous activity in mice at 5.0 mg/kg; format: functional
Canis familiaris [18] = experiment: Tested for Maximal behavioral effect(overt behavior) in dogs, activity is expressed as av score at a dose of 0.4 mg/kg; format: functional, Canis lupus familiaris
Mus musculus [19] = experiment: Tested for the ability to change in rectal temperature in mice at 2.5 mg/kg; format: functional
Mus musculus [20] = experiment: Tested for the ability to alter the spontaneous activity in mice at 2.5 mg/kg; format: functional
Mus musculus [21] = experiment: Tested for the ability to change in rectal temperature in mice at 10.0 mg/kg; format: functional
Mus musculus [22] = experiment: Tested for the ability to alter the spontaneous activity in mice at 10.0 mg/kg; format: functional
Mus musculus [23] = experiment: Tested for the ability to alter the spontaneous activity in mice at 7.5 mg/kg; format: functional
Mus musculus [24] = experiment: Tested for the ability to change in rectal temperature in mice at 7.5 mg/kg; format: functional
Mus musculus [25] = experiment: Tested for the ability to change in rectal temperature in mice at 6 mg/kg; format: functional
Mus musculus [26] = experiment: Tested for the ability to alter the spontaneous activity in mice at 6 mg/kg; format: functional
Mus musculus [27] = experiment: Tested for the ability to alter the spontaneous activity in mice at 30 mg/kg; format: functional
Canis familiaris [28] = experiment: Tested for Maximal behavioral effect(overt behavior) in dogs, activity is expressed as av score at a dose of 0.5 mg/kg; format: functional, Canis lupus familiaris
Mus musculus [29] = experiment: Tested for the ability to change in rectal temperature in mice at 30 mg/kg; format: functional
Mus musculus [30] = experiment: Tested for the ability to change in rectal temperature in mice a 3 mg/kg; format: functional

## CCC(O)CCc1cc(O)c2c(c1)OC(C)(C)[C@@H]1CCC(C)=CC21 (stereo partly drawn)
Mus musculus [1]
  Activity: 27
Canis familiaris [2]
  Average score: 1
Mus musculus [3]
  Activity: 13
Canis familiaris [4]
  Average score: 2
Mus musculus [5]
  Change in temparature: -0.4 °C
Mus musculus [6]
  Activity: 86
Mus musculus [7]
  Change in temparature: -7.6 °C
Mus musculus [8]
  Change in temparature: -1.3 °C
Mus musculus [9]
  Activity: 108
Mus musculus [10]
  Activity: 7
Canis familiaris [11]
  Average score: 4.5
Mus musculus [12]
  Change in temparature: -2.8 °C
Mus musculus [13]
  Change in temparature: -4.1 °C
Canis familiaris [14]
  Average score: -45%
Canis familiaris [15]
  Change: -12%

## CCCCCc1cc(O)c2c(c1)OC(C)(C)[C@@H]1CCC(C)=C[C@@H]21 [DRONABINOL]
Mus musculus [16]
  Change in temparature: -3.6 °C
Mus musculus [17]
  Activity: 20
Canis familiaris [18]
  Average score: 4
Canis familiaris [4]
  Average score: 0
Mus musculus [19]
  Change in temparature: -2.6 °C
Mus musculus [20]
  Activity: 59
Mus musculus [21]
  Change in temparature: -4.2 °C
Mus musculus [22]
  Activity: 6
Canis familiaris [11]
  Average score: 3
Mus musculus [23]
  Activity: 17
Canis familiaris [14]
  Change: -46%
Canis familiaris [15]
  Change: -39%
Mus musculus [24]
  Change in temparature: -3.8 °C

## CCC(O)CCc1cc(O)c2c(c1)OC(C)(C)[C@@H]1CCC(CO)=CC21 (stereo partly drawn)
Mus musculus [25]
  Change in temparature: -0.2 °C
Mus musculus [3]
  Activity: 81
Mus musculus [7]
  Change in temparature: -3 °C
Mus musculus [26]
  Activity: 59
Mus musculus [27]
  Activity: 26
Canis familiaris [28]
  Average score: 3
Mus musculus [10]
  Activity: 33
Canis familiaris [11]
  Average score: 1
Mus musculus [29]
  Change in temparature: -4.3 °C
Mus musculus [30]
  Change in temparature: -0.4 °C
